Measured values: patent US6369109B1, “Betulinic acid and derivatives thereof useful for the treatment of neuroectodermal tumor” (Deutsches Krebsforschungszentrum Stiftung des Offentlichen …, priority 1998, dated 2002)

Assays:
[1] = tested on: isolated nuclei with mitochondria from SHEP cells; assay: Cell-free system of apoptosis: nuclear fragmentation of isolated nuclei; assay type: biochemical, human; details: for nuclear DNA fragmentation, mitochondria plus nuclei plus drug: Neo control mitochondria, 0.1-10 μg/ml betulinic acid or 5 mM atractyloside, 6 h, FIG. 8A, 8B
Protocol: (§1) For determination of nuclear fragmentation, nuclei (10^3/μl) were incubated with mitochondria (1 μg/μl) in buffer D (10 mM HEPES, pH 7.4, 50 mM NaCl, 2 mM MgCl2, 5 mM EGTA, 1 mM DDT, 2 mM ATP, 10 mM phosphocreatine, 50 μg/ml creatine kinase, 10 μM cytochalasin B) for 2 h at 37° C. Nuclei were stained with propidium iodide ([…]) and analyzed by flow cytometry. For determination of caspase activation, cytosolic extracts (2 μg/μl) were incubated with mitochondria (1 μg/μl), cytochrome c (0.1-100 μM) or AIF-containing mitochondrial supernatant (0.5 μg/μl) in buffer D for 2 h at 37° C. Partially purified AIF (cytochrome c-free) was prepared as previously described (0.5 mg/ml, Susin et al., 1997, J. Exp. Med. 186, 5-37; Susin et al., 1996, J. Exp. Med. 184, 1331-41). Proteins were separated by 15% SDS-PAGE and Western blot analysis was performed as described above.
Mitochondria isolated from SHEP cells, transfected with bcl-2 or bcl-XL or a neomycin resistance vector only, were incubated for 6 h with nuclei and 0.1-10 μg/ml betulinic acid (FIG. 8A) or 5 mM atractyloside (FIG. 8B) in the presence or absence of 50 μM bongkrekic acid or 60 μMZ-VAD-fnk. Nuclei incubated with either mitochondria from vector only cells or with betulinic acid were used as control. Nuclear apoptosis was determined by FACS analysis of propidium iodide stained DNA content.
SHEP cells transfected with bcl-2 or bcl-XL or a neomycin resistance vector only were treated with 10 μg/ml betulinic acid or 5 mM atractyloside for 6-24 h (FIG. 8C). Mitochondria were isolated and incubated with nuclei in the presence or absence of 50 μM bongkrekic acid or 60 μMZ-VAD-fmk. Nuclei incubated with either mitochondria front vector only cells or with betulinic acid were used as control. Nuclear apoptosis was determined by FACS analysis of propidium iodide stained DNA content.
Mitochondria isolated from SHEP cells transfected with bcl-2, Bcl-XL or a neomycin resistance vector only were treated with 10 μg/ml betulinic acid or 5 mM atractyloside for 0.5 h in the presence or absence of 50 μM bongkrekic acid or 60 μM zVAD-fmk. Mitochondrial supernatants obtained by high speed centrifugation were incubated with nuclei for 2 h at 37° C. Nuclei incubated with supernatants of untreated mitochondria were used as control.. Nuclear apoptosis was determined by FACS analysis of propidium iodide stained DNA content.
as §1, with “cytometry (Susin et al., 1997 Exp. Cell Res. 236:397-403).” for “cytometry.”, “(10” for “(0.1-100”, “C.” for “C. Partially purified AIF (cytochrome c-free) was prepared as previously described (0.5 mg/ml, Susin et al., 1997, J. Exp. Med. 186, 5-37; Susin et al., 1996, J. Exp. Med. 184, 1331-41).”, “before.” for “above.”
(§2) SHEP cells transfected with Bcl-2 or BCl-XL or a neomycin resistance vector only (Neo) were treated with 0.5 μg/ml Doxorubicin or 10 μg/ml Betulinic acid for 48 h (A) or 24 h (B and C). Cells transfected with a neomycin resistance vector only (Neo) were treated in the presence or absence of 50 μm BA or 60 μm zVAD-fmk. Nuclear apoptosis was determined by FACS analysis or propidium iodide-stained DNA content in intact cells (A) or in a CFS incubating isolated nuclei with mitochondria from cells treated with Doxo or betulinic acid (C). ΔΨm was determined by staining cells with the potential-sensitive fluorochrome DiOC6(3) (B).

[2] = tested on: caspase-3, caspase-8 and PARP in cytosolic extracts of SHEP cells; assay: Cell-free system of apoptosis: cleavage of caspases in cytosolic extracts by mitochondria; assay type: biochemical, human
Protocol: as §1, with “above. To confirm equal loading of mitochondrial protein, all Western blots were also developed with an antibody directed against a 60 kDa mitochondrial antigen (data not shown).” for “above.”
SHEP cells transfected with bcl-2 or Bcl-XL or a neomycin resistance vector only were treated with 10 μg/ml betulinic acid for 16 h. Mitochondria were isolated and incubated with cytosolic extracts for 6 h in the presence or absence of 60 μM zVAD-fmk (left panel, cells). Alternatively, mitochondria isolated from untreated cells were incubated with 10 μg/ml betulinic acid or 5 mM atractyloside together with cytosolic extracts for 6 h in the presence or absence of 60 μMZ-VAD-fmk (right panel, mitos, Atra). Cytosolic extracts incubated with mitochondria isolated from untreated cells or with untreated mitochondria were used as control. 40 μg protein per lane isolated front cell lysates were separated by 15% SDS-PAGE. Immunodetection of caspases-3, -8 and PARP protein was performed by mouse anti-caspase-3 mAb, mouse anti-caspase-8 mAb, rabbit anti-PARP polyclonal antibody and ECL.
SHEP cells treated with 10 μg/ml betulinic acid for indicated times. Mitochondria were isolated and incubated with cytosolic extracts for 6 h. Western blot analysis was performed as described above.
Mitochondria isolated from SHEP cells transfected with bcl-2 or Bcl-XL or a neomycrn resistance vector only were treated with 10 μg/ml betulinic acid or 5 mM atractyloside for 0.5 h in the presence or absence of 50 μM bongkrekic acid or 60 μM zVAD-fmk. Mitochondrial supernatants obtained by high speed centrifugation were incubated with cytosolic extracts for 6 h at 37° C. Cytosolic extracts incubated with supernatants of untreated mitochondria were used as control. Western blot analysis was performed as described for FIG. 9A.
as §1, with “cytometry (Susin et al., 1997 Exp. Cell Res. 236:397-403).” for “cytometry.”, “(10” for “(0.1-100”, “C.” for “C. Partially purified AIF (cytochrome c-free) was prepared as previously described (0.5 mg/ml, Susin et al., 1997, J. Exp. Med. 186, 5-37; Susin et al., 1996, J. Exp. Med. 184, 1331-41).”, “before.” for “above.”
SHEP cells transfected with Bcl-2 or Bcl-XL or a neomycin resistance vector only (Neo) were treated (Lanes+) with 0.5 μg/ml Doxo or 10 μg/ml Bet A for 16 h. Mitochondria were isolated and incubated with cytosolic extracts for 6 h. in the presence or absence of 60 μm Z-VAD.fmk. Western blot analysis was performed as described in FIG. 14A.

[3] = tested on: SH-EP neuroblastoma cells; assay: Specific apoptosis, FACS analysis of propidium iodide-stained nuclei; assay type: cell-based, human; details: 10 μg/ml antibody fragments 1 h before drug; 10 μg/ml betulinic acid, 50 μg/ml VP-16, 10 μg/ml cisplatinum, 0.5 μg/ml doxorubicin, 72 h; FIG. 3B
Protocol: Quantification of DNA fragmentation was performed by FACS analysis of propidium iodide stained nuclei as described in Nicoletti et al, 1991, J. Immunol. Methods. 139: 271-279. Cells were analyzed for DNA content by flow. cytometry (FACScan, Becton Dickinson, Heidelberg, Germany) using CELLQuest software. Early apoptotic changes were identified by staining with biotinylated annexin V (Bender Med Systems, Vienna, Austria) following the manufacturer's instructions. Annexin V binds to exposed phosphatidylserine on the surface of apoptotic cells. Koopman et al, 1994, Blood. 84:1415-1420. Cells were analyzed by flow cytometry (FAC-Scan. Becton Dickinson) using CELLQuest software.
Cells were treated with 10 μg/ml betulinic acid for 72 h. Apoptosis was assessed by FACS analysis of propidium iodide-stained nuclei. Percentage of specific apoptosis was calculated as follows: experimental apoptosis (%) −spontaneous apoptosis in medium (%)/[100%−spontaneous apoptosis in medium (%)]×100%. […]
Cells were incubated for indicated times with doxorubicin, betulinic acid or anti-APO-1 and harvested by trypsinization using 0.05% trypsin and 0.02% EDTA without Ca^2+and Mg^2+(Life Technologies, Inc.). Quantification of DNA fragmentation was performed by FACS analysis of propidium iodide stained nuclei as previously described in Nicoletti et al., J. ImmunoL Methods 139:271-279, using CELLQuest software (Becton Dickinson, Heidelberg, Germany).
as §2

[4] = tested on: mitochondria isolated from SHEP cells; assay: Mitochondrial membrane potential of isolated mitochondria (DiOC6(3)); assay type: biochemical, human; details: mitochondria from wild type or vector-only SHEP cells; 10 μg/ml betulinic acid, 30 min; FIG. 7, 12D
Protocol: For isolation of mitochondria, cells (3×10^5 per sample) were washed twice with ice-cold PBS and resuspended with five volumes of buffer A (50 mM Tris, 1 mM EGTA, 5 mM 2-mercaproethanol, 0.2% BSA, 10 mM KH2PO4, pH 7.6, 0.4 M sucrose) and allowed to swell on ice for 20 min. Cells were homogenized with 30 strokes of a Teflon homogenizer and centrifuged at 10000 g for 10 min at 4° C. The resulting pellets were resuspended in buffer B (10 mM KH2PO4, pH 7.2, […] mannitol, 0.1% BSA). Mitochondria were separated by sucrose gradient (lower layer: 1.6 M sucrose, 10 mM KH2PO4, pH 7.5, 0.1% BSA; upper layer: 1.2 M sucrose, 10 mM KH2PO4, pH 7.5, 0.1% BSA). Interphases containing mitochondria were washed with buffer B at 18000 g for 10 min at 4° C. and the resulting mitochondrial pellets were resuspended in buffer B. For preparation of cytosolic extracts, cells (1×10^8 per sample) were washed twice with ice-cold PBS, resuspended with one volume of buffer A and allowed to swell on ice for 20 min. Cells were homogenized with 30 strokes of a Dounce homogenizer and centrifuged at 15000×g for 15 min ax 4° C. The protein concentration of mitochondria or cytosolic extracts was determined by Bradford method (Bio-Rad). For isolation of nuclei, cells were washed twice in ice-cold PBS, resuspended in 10 volumes of buffer C (10 mM PIPES, pH 7.4, 10 mM KCl, 2 mM MgCl2, 1 mM DDT, 1 mM PMSF, 10 μM cytochalasin B), allowed to swell on ice for 20 min and homogenized using a Teflon homogenizer. Homogenates were layered over 30% sucrose in buffer C and centrifuged at 800 g for 10 min. The resulting nuclear pellets were resuspended in buffer C and washed three times. Nuclei were scored at −80° C. in aliquots of 10^8 nuclei/ml until required. AIF-containing mitochondrial supernatant was prepared as described in Susin et aL, 1997, J. Exp. Med. 186, 5-37 and Susin et al., 1996, J. Exp. Med. 184, 1331-41.
Mitochondria (5×10^5/ml) were treated with 10 μg/ml betulinic acid for 30 min, incubated with 3,3′-dihexyloxacarbocyanide iodide (DiOC6(3), 40 nM, Molecular Probes, Inc., Eugene, Oreg.) for 15 min at 37° C. and analyzed on a flow cytometer (FACS Vantage, Becton Dickinson). As a control, cells were treated with the uncoupling agent carbonyl cyanide m-chlorophenylhydrazone (mCICCP, 200 μM, Sigma).

SMILES | DNA fragmentation by supernatants from treated mitochondria ([1]; 10 μg/ml betulinic acid or 5 mM atractyloside 0.5 h, supernatant with nuclei 2 h, FIG. 10B) | nuclear DNA fragmentation, mitochondria plus nuclei plus drug [1] | caspase cleavage in cytosolic extracts by supernatants from treated mitochondria ([2]; 10 μg/ml betulinic acid or 5 mM atractyloside 0.5 h, extracts 6 h, FIG. 10A) | caspase cleavage in cytosolic extracts by treated isolated mitochondria ([2]; 10 μg/ml betulinic acid or 5 mM atractyloside, 6 h, FIG. 9A) | effect of CD95 blockage by F(ab′)2 anti-APO-1 on drug-induced apoptosis [3] | Δψm of isolated mitochondria [4]
C=C1[C@@H]2CC[C@H]3[C@]4(C)C[C@H](O[C@@H]5O[C@H](CO)[C@@H](OS(=O)(=O)O)[C@H](OS(=O)(=O)O)[C@H]5OC(=O)CC(C)C)C[C@@H](C(=O)O)[C@H]4CC[C@]3(C2)[C@H]1O [atractyloside] | caspase activation and nuclear fragmentation were observed | had the same effect as betulinic acid | caspase activation and nuclear fragmentation were observed | led to activation of caspases |  | 
COc1cc([C@@H]2c3cc4c(cc3[C@@H](O[C@@H]3O[C@@H]5CO[C@@H](C)O[C@H]5[C@H](O)[C@H]3O)[C@H]3COC(=O)[C@H]23)OCO4)cc(OC)c1O [VP-16, etoposide] |  | No DNA fragmentation was observed |  |  | markedly reduced | did not induce mitochondrial perturbations
N.N.[Cl][Pt][Cl] [cisplatinum] |  | No DNA fragmentation was observed |  |  | markedly reduced | did not induce mitochondrial perturbations
